# Measured values: PMC6759494 (Tetrahedron, 2019)
# Target: peptide deformylase (EcPDF) (Escherichia coli, UniProt P0A6K3)
# Test: coupled colorimetric assay
# Assay type: biochemical
# Sequence of peptide deformylase (EcPDF) (P0A6K3 2-169): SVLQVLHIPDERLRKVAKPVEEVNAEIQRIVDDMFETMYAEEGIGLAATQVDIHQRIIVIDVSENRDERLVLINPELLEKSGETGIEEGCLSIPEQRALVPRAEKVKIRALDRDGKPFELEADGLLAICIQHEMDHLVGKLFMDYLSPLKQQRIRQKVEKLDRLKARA
Compound,% inhibition at 4 μM,inhibition at 4 µM (read-out: % inhibition at 4 μM) [%]
"C/C=C/c1c(O)c(O)cc2c1[C@@](C)(NC(=O)/C=C/C(=O)O)C(=O)O2 (racemic) [compound 1, (±)-fumimycin]",~ 20,
Dimethoxy-fumimycin hydroxamic acid [17f],~ 20,
"CCCCC[C@H](CC(=O)NO)C(=O)N[C@H](C(=O)N1CCC[C@H]1CO)C(C)C [compound 2, actinonin]",,~95
Dimethoxy-fumimycin methyl ester [17b],~ 20,
Fumimycin Weinreb amide [17h],~ 16,
